Assay results reported in paper PMC9961652 (International Journal of Molecular Sciences, 2023).
“Also recorded” adds a separate entry of the source. Where two headings read alike, the source gives them in different places.

Tests used:
washed human platelets [1] = assay: Collagen-induced platelet aggregation, light transmission aggregometry (Born method); assay type: cell-based; details: for IC50: collagen 1 µg/mL, dose-response curves, read-out: IC50 (95% CI) of platelet aggregation; for IC50 / activity at 20 µM: washed human platelets; for activity at 20 µM: compound 20 µM, means ± SDs of three experiments, 100% = agonist alone
Protocol: Light transmission aggregometry, i.e., the Born method, was used to determine in vitro antiplatelet aggregation activity using collagen as the agonist for platelet aggregation. Collagen was selected as the agonist, since it is the most thrombogenic component of the subendothelial layer. Collagen also serves as a substrate for platelet adhesion and as an inducer of platelet activation.
All experiments using human blood from healthy volunteers were performed according to the protocols approved by the Institutional Review Board at Cincinnati Children’s Hospital Medical Center, Cincinnati, Ohio. Each volunteer was required to sign an informed consent form approved by the IRB. Procedures for drawing human blood, isolating platelet-rich plasma (PRP), and preparing washed platelet suspensions were the same as those previously reported. […] PRP was obtained by means of the centrifugation of blood at 1400 rpm for 15 min at room temperature. PRP was centrifuged at 4000 rpm for 10 min at room temperature, and the platelet pellet was resuspended in HEPES Tyrode’s solution (pH 7.4) without calcium. Platelets were counted using Hemavet 950FS (Drew Scientific, Oxford, CT, USA), and the count was adjusted to 2.5 × 10^8/mL for aggregation studies.
The in vitro antiplatelet activity of the compounds was assayed on washed human platelets using light transmission aggregometry. Platelet aggregation was performed using a 4-channel Lumi-aggregometer (Chronolog, PA, USA) at 37 °C and stirring speed of 900 rpm. A volume of 250 µL of washed human platelets (2.5 × 10^8/mL) was pre-warmed to 37 °C along with the compounds or DMSO (0.1%) for 2 min before the addition of agonists such as collagen, AA, U46619 (a stable synthetic analog of thromboxane A2), ADP, and thrombin. For ATP secretion, platelets were pre-incubated with a luciferin/luciferase kit (Chrono-lume®) for 30 s at 37 °C before the addition of the agonist. The reactions were allowed to proceed for at least 4 min, and the results of platelet aggregation and ATP secretion were determined using Aggrolink software. Platelet aggregation was expressed as the maximum change in the light transmission, where the 100% value corresponded to treatment with the agonist alone. Compounds were evaluated in triplicate at nine compound concentrations ranging from 50 µM to 1 µM.

RhoA-LARG interaction = target: T1, RhoA-LARG interaction (Homo sapiens, UniProt P61586); assay: In vitro complex-formation assay of RhoA with LARG DH-PH domain; assay type: binding; details: R-G04 25 µM or 50 µM, S-G04 5 µM or 10 µM; 4 °C, 1 h
T1 construct: 100 ng of purified full-length RhoA
T1 sequence (P61586 whole entry, the tested form may be a part): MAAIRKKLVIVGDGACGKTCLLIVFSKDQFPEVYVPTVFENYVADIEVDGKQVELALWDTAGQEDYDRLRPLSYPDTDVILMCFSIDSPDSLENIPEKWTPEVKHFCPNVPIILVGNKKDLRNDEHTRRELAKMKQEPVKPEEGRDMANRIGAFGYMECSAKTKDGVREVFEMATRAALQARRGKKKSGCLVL
Protocol: (A) A complex-formation assay tested the inhibitory effects of 20 µM UC-177618 and UC-177619 on RhoA interaction with the LARG DH-PH domain. […] After incubating the compound-RhoA-LARG mixture at 4 °C for 1 h, the beads associated with RhoA were detected with anti-RhoA Western blotting. (B,C) Top view of the predicted structural contacts of UC-177618 and UC-177619 in the binding pocket around the Trp58 residue of RhoA.
(A) A complex-formation assay tested the inhibitory effects of R-G04 and S-G04 on RhoA interaction with the LARG DH-PH domain. MBP-(His)6-tagged LARG (100 ng) was immobilized on Amylose beads. Binding buffer containing full-length RhoA (100 ng) was pre-incubated with different concentrations of R-G04 (25 µM or 50 µM), and S-G04 (5 µM or 10 µM) was added to the beads. After incubating the compound-RhoA-LARG mixture at 4 °C for 1 h, the beads associated with RhoA were detected with anti-RhoA Western blotting. (B) Top view of the predicted structural contacts of R-G04 and S-G04 in the binding pocket around the Trp58 residue of RhoA.
In total, 100 ng of purified MBP (Maltose-binding protein)-(His)6-tagged LARG DH-PH was immobilized on 20 µL of suspended amylose beads (No. E8021S; New England Biolabs Inc., Ipswich, MA, USA) by incubating them in an orbital shaker at 4 °C for 30 min in binding buffer (20 mM Tris·HCl (pH 7.6), 100 mM NaCl, 0.01% Triton X-100, 5mM EDTA, and 5 mM MgCl2). The compounds were added to the binding buffer containing 100 ng of purified full-length RhoA and pre-incubated at 4 °C for 30 min under constant agitation. The Amylose beads bound to LARG were washed thrice with binding buffer to get rid of unbound LARG, and the pre-incubated compound-RhoA mixture was added to the beads. This LARG-compound-RhoA mixture was incubated in the orbital shaker at 4 °C for 1 h. The beads were washed three times, and the amount of RhoA protein co-precipitated with the MBP-fusion-bound beads was detected with anti-RhoA Western blotting.

washed human platelets [2] = assay: Thromboxane B2 ELISA assay; assay type: cell-based; details: different concentrations; thrombin stimulation; Indomethacin 20 µM as comparator
Protocol: (A–D) Washed human platelets were pre-incubated with 10 µM S-G04 or 20 µM R-G04 for 2 min before being stimulated with Arachidonic Acid (AA), U46619, ADP, or Thrombin. The % platelet aggregation was measured 5 min after agonist stimulation. (E) Washed human platelets were pre-incubated with 10 µM S-G04 or 20 µM R-G04 for 2 min and with Chrono-lume® for 30 s at 37 °C before being stimulated with 0.1 U/mL Thrombin. […] TxB2 formation was determined using a TxB2 ELISA kit. The differences among DMSO, R-G04, and S-G04 were analyzed using t-test, and the results are shown as means ± SDs of three independent experiments. (* p < 0.05, ** p < 0.01, *** p < 0.001, and **** p < 0.0001).
The level of TxB2 was measured with an enzyme immunoassay kit (No. 501020; Cayman Chemical, Ann Arbor, MI, USA) as previously described. […] The reactions were terminated by adding 250 µL of HEPES Tyrode’s buffer (pH 7.4) containing 2 mM EDTA. The platelets were centrifuged for 2 min, and the level of TxB2 in the supernatant was measured with the ELISA kit according to the manufacturer’s instructions.

[3] = Platelet, read-out: % Platelet Aggregation, Collagen (1 µg/mL)
[4] = Platelet, read-out: % Platelet Aggregation, Collagen (5 µg/mL)

Row | Compound | IC50 (washed human platelets [1]; Homo sapiens, Platelet) [µM] | activity at 20 µM (washed human platelets [1]; [3]) [%] | activity at 20 µM (washed human platelets [1]; [4]) [%] | LARG binding to RhoA (RhoA-LARG interaction) | generation of TxA2, measured as thromboxane B2 (TxB2) (washed human platelets [2]) | IC50 (washed human platelets [1]) [µM] | potency of S-G04 relative to R-G04 (washed human platelets [1]; from IC50, collagen 1 µg/mL)
1 | N[C@H](Cc1c[nH]c2ccccc12)C(=O)N/N=C/c1ccc2nccnc2c1 [R-G04] | 22.6 | 70.3 ± 18.9 | 71.4 ± 15 | dose-dependently suppressing LARG binding to RhoA | dose-dependent inhibition |  | 
2 | N[C@@H](Cc1c[nH]c2ccccc12)C(=O)N/N=C/c1ccc2nccnc2c1 [S-G04] | 7.8 | 9.33 ± 4.93 | 20 ± 5 | dose-dependently suppressing LARG binding to RhoA | dose-dependent inhibition; also recorded: comparable to that of Indomethacin | 7.96 | three times more potent than R-G04
